Like-named read-outs stand apart in the source and are kept apart here.
Experiments:
[1] = system: Key Broadleaf Weed and Crop Species; test: Post-Emergent Test II (Table 5); format: in vivo; details: post-emergence, 336 h; for pest or weed control at 70 g/ha: application rate 70 (kg ai/ha; footnote: g ai/ha); for pest or weed control at 140 g/ha: application rate 140 (kg ai/ha; footnote: g ai/ha)
Outline: (§1)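 Visual injury ratings (0 = no injury, 100 = complete kill) were taken 14 days after treatment relative to untreated plants. Seedlings at the first or second true leaf stage received an overhead spray at 187 L/ha, and solvent-blank sprayed plants served as controls.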

[2] = system: Key Grass and Sedge Weeds as well as Grass Crops; test: Post-Emergent Test II (Table 6); format: in vivo; details: post-emergence, 336 h, 14 days after application; for pest or weed control at 70 g/ha: 70 g ai/ha; for pest or weed control at 140 g/ha: 140 g ai/ha
Outline: as §1

[3] = Abutilon theophrasti, ABUTH: velvetleaf (Abutilon theophrasti), read-out: Visual Growth Reduction (%) 14 Days After Application ABUTH
[4] = Amaranthus retroflexus, AMARE: redroot pigweed (Amaranthus retroflexus), read-out: Visual Growth Reduction (%) 14 Days After Application AMARE
[5] = Brassica napus, BRSSS: oilseed rape, canola (Brassica napus), read-out: Visual Growth Reduction (%) 14 Days After Application BRSSS
[6] = Chenopodium album, CHEAL: lambsquarters (Chenopodium album), read-out: Visual Growth Reduction (%) 14 Days After Application CHEAL
[7] = Euphorbia heterophylla, EPHHL: wild poinsettia (Euphorbia heterophylla), read-out: Visual Growth Reduction (%) 14 Days After Application EPHHL
[8] = Helianthus annuus, HELAN: sunflower (Helianthus annuus), read-out: Visual Growth Reduction (%) 14 Days After Application HELAN
[9] = Viola tricolor, VIOTR: wild pansy (Viola tricolor), read-out: Visual Growth Reduction (%) 14 Days After Application VIOTR
[10] = CYPSS, read-out: Visual Growth Reduction (%) 14 Days After Application CYPSS
[11] = DIGSA: crabgrass (Digitaria sanguinalis), read-out: Visual Growth Reduction (%) 14 Days After Application DIGSA
[12] = ECHSS, read-out: Visual Growth Reduction (%) 14 Days After Application ECHSS
[13] = ORYSS (crop), read-out: Visual Growth Reduction (%) 14 Days After Application ORYSS
[14] = SETFA: giant foxtail (Setaria faberi), read-out: Visual Growth Reduction (%) 14 Days After Application SETFA
[15] = SORVU: grain sorghum (Sorghum vulgare), read-out: Visual Growth Reduction (%) 14 Days After Application SORVU
[16] = TRZSS (crop), read-out: Visual Growth Reduction (%) 14 Days After Application TRZSS
[17] = ZEAMX: maize, corn (Zea mays), read-out: Visual Growth Reduction (%) 14 Days After Application ZEAMX

Row | Compound | pest or weed control at 70 g/ha [1, 3] | pest or weed control at 140 g/ha [1, 3] | pest or weed control at 70 g/ha [1, 4] | pest or weed control at 140 g/ha [1, 4] | pest or weed control at 70 g/ha [1, 5] | pest or weed control at 140 g/ha [1, 5] | pest or weed control at 70 g/ha [1, 6] | pest or weed control at 140 g/ha [1, 6] | pest or weed control at 70 g/ha [1, 7] | pest or weed control at 140 g/ha [1, 7] | pest or weed control at 70 g/ha [1, 8] | pest or weed control at 140 g/ha [1, 8] | pest or weed control at 70 g/ha [1, 9] | pest or weed control at 140 g/ha [1, 9] | pest or weed control at 70 g/ha [2, 10] | pest or weed control at 140 g/ha [2, 10] | pest or weed control at 70 g/ha [2, 11] | pest or weed control at 140 g/ha [2, 11] | pest or weed control at 70 g/ha [2, 12] | pest or weed control at 140 g/ha [2, 12] | further results
1 | COC(=O)c1nc(-c2ccc(Cl)nc2F)c(F)c(N)c1Cl [Compound 45] | 85 to 94% | 95 to 100% | 95 to 100% | 95 to 100% | 0 to 29% | 30 to 44% | 95 to 100% | 95 to 100% | 30 to 44% | 45 to 59% | 95 to 100% | 95 to 100% | 75 to 84% | 95 to 100% | 95 to 100% | 95 to 100% | 60 to 74% | 75 to 84% | 75 to 84% | 85 to 94% | pest or weed control at 70 g/ha [2, 13]: 0 to 29%; pest or weed control at 140 g/ha [2, 13]: 0 to 29%; pest or weed control at 70 g/ha [2, 14]: 45 to 59%; pest or weed control at 140 g/ha [2, 14]: 45 to 59%; pest or weed control at 70 g/ha [2, 15]: 30 to 44%; pest or weed control at 140 g/ha [2, 15]: 45 to 59%; pest or weed control at 70 g/ha [2, 16]: 0 to 29%; pest or weed control at 140 g/ha [2, 16]: 0 to 29%; pest or weed control at 70 g/ha [2, 17]: 0 to 29%; pest or weed control at 140 g/ha [2, 17]: 0 to 29%; melting point: 190 to 191 °C
2 | COC(=O)c1nc(-c2ccc(OC)nc2)c(F)c(N)c1Cl [Compound 62] | 95 to 100% | 95 to 100% | 95 to 100% | 95 to 100% | 60 to 74% | 60 to 74% | 95 to 100% | 95 to 100% | 95 to 100% | 95 to 100% | 95 to 100% | 95 to 100% | 0 to 29% | 0 to 29% | 0 to 29% | 30 to 44% | 75 to 84% | 60 to 74% | 95 to 100% | 95 to 100% | pest or weed control at 70 g/ha [2, 13]: 0 to 29%; pest or weed control at 140 g/ha [2, 13]: 0 to 29%; pest or weed control at 70 g/ha [2, 14]: 60 to 74%; pest or weed control at 140 g/ha [2, 14]: 85 to 94%; pest or weed control at 70 g/ha [2, 15]: 60 to 74%; pest or weed control at 140 g/ha [2, 15]: 75 to 84%; pest or weed control at 70 g/ha [2, 16]: 45 to 59%; pest or weed control at 140 g/ha [2, 16]: 45 to 59%; pest or weed control at 70 g/ha [2, 17]: 95 to 100%; pest or weed control at 140 g/ha [2, 17]: 95 to 100%; melting point: 168 to 169 °C
3 | COC(=O)c1nc(-c2ccc(Cl)c(Cl)c2Cl)c(F)c(N)c1Cl [Compound 12] | 85 to 94% | 85 to 94% | 95 to 100% | 95 to 100% | 75 to 84% | 75 to 84% | 85 to 94% | 85 to 94% | 75 to 84% | 75 to 84% | 85 to 94% | 85 to 94% | 0 to 29% | 0 to 29% | 0 to 29% | 45 to 59% | 30 to 44% | 45 to 59% | 0 to 29% | 0 to 29% | pest or weed control at 70 g/ha [2, 13]: 0 to 29%; pest or weed control at 140 g/ha [2, 13]: 0 to 29%; pest or weed control at 70 g/ha [2, 14]: 45 to 59%; pest or weed control at 140 g/ha [2, 14]: 45 to 59%; pest or weed control at 70 g/ha [2, 15]: 0 to 29%; pest or weed control at 140 g/ha [2, 15]: 30 to 44%; pest or weed control at 70 g/ha [2, 16]: 0 to 29%; pest or weed control at 140 g/ha [2, 16]: 0 to 29%; pest or weed control at 70 g/ha [2, 17]: 75 to 84%; melting point: 195 to 196 °C
